The text below walks through data of article PMC10340768, “New Hydrolyzable Tannin with Potent Antioxidant and α-Glucosidase Inhibitory Activity from Black Tea Produced from Camellia taliensis” (Foods, 2023).

Assay [1] is described as follows: DPPH radical scavenging assay.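 As to all read-outs here: compounds in EtOH mixed 1:1 with 200 µM DPPH in EtOH in 96-well plates, kept dark 15 min at room temperature, with blank control and ascorbic acid as reference.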 The note with it: for IC50: half-maximal inhibitory concentration to DPPH radical, means ± SD (n = 3); for DPPH Inhibition Ratio (%): at a concentration of 500 μM. Background: DPPH is a stable violet radical that fades when it is reduced.
Method: (§1) The DPPH assay was conducted as follows: the tested compound (final concentration: 0.2–1000 μM in EtOH, 100 μL) and DPPH solution (200 μM in EtOH, 100 μL) were sequentially added to 96-well plates at room temperature, then hid from the light for 15 min. The blank control and positive control (ascorbic acid) were set simultaneously. OD values at 517 nm were detected with a microplate reader. ABTS^+ assay was carried out as follows: firstly, the ABTS^+ solution was prepared using the procedure in our previous paper [19]. Then, the tested compound (final concentration: 0.2–1000 μM in EtOH, 10 μL) and ABTS^+ solution (200 μL) were added to 96-well plates at room temperature in an orderly manner, and then hided from light for 6–8 min. The blank control and positive control (trolox) were set synchronously. OD values at 405 nm were then detected with a microplate reader. All the reactions were set up three replicates.
A short description of assay [2]: ABTS+ radical scavenging assay.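 As to all read-outs here: ABTS+ radical solution incubated with compound in EtOH in 96-well plates for 6–8 min in the dark at room temperature, versus blank control, trolox as reference.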 The settings on record: for IC50: half-maximal inhibitory concentration to ABTS+ radical, means ± SD (n = 3); for ABTS+ Inhibition Ratio (%): at a concentration of 500 μM.
Method: as §1
A further assay has as its target α-glucosidase. The experiment in a line: α-Glucosidase inhibitory activity (PNPG substrate). Format: biochemical. The note with it: means ± SD (n = 3).

Method for α-glucosidase: Initially, 96-well plates with the following ingredients were added in a proper order: testing compound (50 μM), α-glucosidase solution (0.025 U/mL), buffer, and the zymolyte (1 mM), and kept at 37 °C for 50 min. […] All the reactions were set up with three replicates. OD values at 405 nm were recorded with a microplate reader.

Usually IC50 stands for the midpoint of a concentration-inhibition curve. Read a high IC50 as weaker potency in that assay. In the case of “1-(3′,4′-dihydroxycinnamoyl) cyclopentane-2,3-diol [Compound 30]”, the figures for the IC50 in assay [1] and in assay [2] were 548 ± 61.5 µM and 307 ± 3.3 µM, respectively.
For `O=C1O[C@H]([C@@H](O)CO)C(O)=C1O` [Ascorbic acid, ascorbic acid, reference compound], the IC50 in assay [1] was 1200 ± 87.7 µM.
With `O=C(O[C@@H]1O[C@@H]2COC(=O)c3cc(O)c(O)c4oc5c(O)c(O)cc(c5c34)C(=O)O[C@H]2[C@H](O)[C@H]1O)c1cc(O)c(O)c(O)c1` [Compound 1, 1-O-galloyl-4,6-tetrahydroxydibenzofurandicarboxyl-β-D-glucopyranose], the IC50 in assay [1] came out at 339 ± 24.7 µM; in assay [2], 111 ± 2.1 µM; on α-glucosidase, 1.77 ± 0.05 µM.
As for `O=C(O)/C=C\c1ccc(O[C@@H]2O[C@H](COC(=O)c3cc(O)c(O)c(O)c3)[C@@H](O)[C@H](O)[C@H]2O)cc1` [Compound 2, 4-O-(6′-O-galloyl-β-D-glucopyranosyl)-cis-p-coumaric acid], the IC50 in assay [1] was found to be 502 ± 14 µM; in assay [2], 400 ± 9.6 µM.
For the molecule `O=C(O[C@H]1C(O)O[C@@H]2COC(=O)c3cc(O)c(O)c(O)c3-c3c(cc(O)c(O)c3O)C(=O)O[C@H]2[C@@H]1O)c1cc(O)c(O)c(O)c1` (stereo partly drawn) [Compound 3, 2-O-galloyl-4,6-O-(S)-hexahydroxydiphenoyl-β-D-glucopyranose], the values for the IC50 (in assay [1]; in assay [2]; at α-glucosidase) were 941 ± 191 µM, 106 ± 0.5 µM and 1.74 ± 0.03 µM, respectively.
For `O=C(O[C@@H]1O[C@@H]2COC(=O)c3cc(O)c(O)c(O)c3-c3c(cc(O)c(O)c3O)C(=O)O[C@H]2[C@H](O)[C@H]1O)c1cc(O)c(O)c(O)c1` [Compound 4, 1-O-galloyl-4,6-O-(S)-hexahydroxydiphenoyl-β-D-glucopyranose], in that order: 312 ± 10.8 µM, 84.8 ± 0.4 µM and 1.96 ± 0.06 µM.
Turning to `O=C(O[C@@H]1O[C@@H]2COC(=O)c3cc(O)c(O)c(O)c3-c3c(cc(O)c(O)c3O)C(=O)O[C@H]2[C@H](O)[C@H]1OC(=O)c1cc(O)c(O)c(O)c1)c1cc(O)c(O)c(O)c1` [Compound 5, 1,2-di-O-galloyl-4,6-O-(S)-hexahydroxydiphenoyl-β-D-glucopyranose], the IC50 in assay [1] was found to be 301 ± 79.6 µM; in assay [2], 75.6 ± 2.1 µM; against α-glucosidase, 0.67 ± 0.04 µM.
Take `O=C(OC[C@H]1O[C@@H](OC(=O)c2cc(O)c(O)c(O)c2)[C@H](O)[C@@H](O)[C@@H]1O)c1cc(O)c(O)c(O)c1` [Compound 6, 1,6-di-O-galloyl-β-D-glucopyranose]: the IC50 in assay [1] turned out to be 217 ± 27.4 µM; in assay [2] it was 99.7 ± 1.4 µM.
Take `O=C(OC[C@H]1O[C@@H](OC(=O)c2cc(O)c(O)c(O)c2)[C@H](OC(=O)c2cc(O)c(O)c(O)c2)[C@@H](O)[C@@H]1O)c1cc(O)c(O)c(O)c1` [Compound 7, 1,2,6-tri-O-galloy-β-D-glucopyranose]: the IC50 in assay [1] worked out at 532 ± 38 µM; in assay [2], 128.4 ± 0.9 µM; on α-glucosidase, 1.96 ± 0.05 µM.
For the molecule `O=C(OC[C@H]1O[C@@H](OC(=O)c2cc(O)c(O)c(O)c2)[C@H](O)[C@@H](O)[C@@H]1OC(=O)c1cc(O)c(O)c(O)c1)c1cc(O)c(O)c(O)c1` [Compound 8, 1,4,6-tri-O-galloyl-β-D-glucopyranose], the values for the IC50 (in assay [1]; in assay [2]; against α-glucosidase) were 156 ± 26.1 µM, 77.2 ± 0.7 µM and 2.01 ± 0.02 µM, respectively.
Consider `O=c1c(O[C@@H]2O[C@H](CO)[C@@H](O)[C@H](O)[C@H]2O)c(-c2ccc(O)cc2)oc2cc(O)cc(O)c12` [Compound 9, kaempferol 3-O-β-D-glucopyranoside], for which, in assay [1], the “DPPH Inhibition Ratio (%)” value is 0.97%. Besides, the “ABTS+ Inhibition Ratio (%)” value in assay [2] was 0.19%.
For `O=C(/C=C/c1ccc(O)cc1)OC[C@H]1O[C@@H](Oc2c(-c3ccc(O)cc3)oc3cc(O)cc(O)c3c2=O)[C@H](O)[C@@H](O)[C@@H]1O` [Compound 10, kaempferol 3-O-(6″-trans-p-coumaroyl)-β-D-glucopyranoside], in that order: 6.28% and 11.55%.
As to `O=c1c(O[C@@H]2O[C@H](CO)[C@@H](O)[C@H](O)[C@H]2O)c(-c2ccc(O)c(O)c2)oc2cc(O)cc(O)c12` [Compound 11, quercetin 3-O-β-D-glucopyranoside], the IC50 in assay [2] is 322.8 ± 0.6 µM.
As to `C[C@@H]1O[C@@H](OC[C@H]2O[C@@H](Oc3c(-c4ccc(O)cc4)oc4cc(O)cc(O)c4c3=O)[C@H](O)[C@@H](O)[C@@H]2O)[C@H](O)[C@H](O)[C@H]1O` [Compound 12, kaempferol 3-O-rutinoside], the “DPPH Inhibition Ratio (%)” value in assay [1] was 8.58%. In assay [2], the “ABTS+ Inhibition Ratio (%)” value was 4.24%.
With `C[C@@H]1O[C@@H](OC[C@H]2O[C@@H](Oc3c(-c4ccc(O)c(O)c4)oc4cc(O)cc(O)c4c3=O)[C@H](O)[C@@H](O)[C@@H]2O)[C@H](O)[C@H](O)[C@H]1O` [Compound 13, rutin], the IC50 in assay [1] worked out at 900 ± 63.4 µM; in assay [2], 266 ± 5.4 µM.
`O=c1c(O[C@@H]2O[C@H](CO)[C@H](O)[C@H](O)[C@H]2O)c(-c2ccc(O)cc2)oc2cc(O)cc(O)c12` [Compound 14, kaempferol 3-O-β-D-galactopyranoside]: the “DPPH Inhibition Ratio (%)” value in assay [1] was −0.94%. Further, the “ABTS+ Inhibition Ratio (%)” value in assay [2] is given as 4.03%.
As for `C[C@@H]1O[C@@H](Oc2c(-c3ccc(O)cc3)oc3cc(O)cc(O)c3c2=O)[C@H](O)[C@H](O)[C@H]1O` [Compound 15, kaempferol 3-O-α-L-rhamnopyranoside], the “DPPH Inhibition Ratio (%)” value in assay [1] was 1.04%. For the same molecule, the “ABTS+ Inhibition Ratio (%)” value in assay [2] came out at 8.00%.
In the case of `O=c1c(O)c(-c2ccc(O)c(O)c2)oc2cc(O)cc(O)c12` [Compound 16, quercetin], the IC50 in assay [1] was 1140 ± 207 µM; in assay [2], 206 ± 2.6 µM.
On the same counts, the results for `C[C@@H]1O[C@@H](Oc2c(-c3ccc(O)c(O)c3)oc3cc(O)cc(O)c3c2=O)[C@H](O[C@@H]2O[C@H](CO)[C@@H](O)[C@H](O)[C@H]2O)[C@H](O)[C@H]1O` [Compound 17, quercetin 3-(2″-β-D-glucosyl)-α-L-rhamnopyranoside] are 2620 ± 500 µM and 480.9 ± 4.1 µM.
Take `C[C@@H]1O[C@@H](Oc2c(-c3ccc(O)cc3)oc3cc(O)cc(O)c3c2=O)[C@H](O[C@@H]2O[C@H](CO)[C@@H](O)[C@H](O)[C@H]2O)[C@H](O)[C@H]1O` [Compound 18, kaempferol 3-(2″-β-D-glucosyl)-α-L-rhamnopyranoside]: in assay [1], the “DPPH Inhibition Ratio (%)” value came to 1.08%. Further, in assay [2], the “ABTS+ Inhibition Ratio (%)” value was found to be 5.89%.
With `O=C(O)c1cc(O)c(O)c(O)c1` [Compound 19, gallic acid], the IC50 in assay [1] amounted to 237 ± 22.6 µM; in assay [2] it was 202 ± 3.4 µM.
As to `O=C(O)c1ccc(O)c(O)c1` [Compound 20, 3,4-dihydroxybenzoic acid], the IC50 was found to be 2120 ± 336 µM in assay [1] and 462 ± 9.3 µM in assay [2].
In the case of `O=C(O)c1ccc(O)cc1` [Compound 21, p-hydroxybenzoic acid], the “DPPH Inhibition Ratio (%)” value in assay [1] is recorded as 3.32%. The “ABTS+ Inhibition Ratio (%)” value in assay [2] was determined as 3.21%.
On the same counts, the results for `O=C(O)c1cccc(O)c1` [Compound 22, m-hydroxybenzoic acid] are 7.58% and 7.00%.
In the case of `COC(=O)c1cc(O)c(O)c(O)c1` [Compound 23, methyl gallate], the values for the IC50 in assay [1] and in assay [2] were 299 ± 32.3 µM and 187 ± 2.7 µM, respectively.
As for `O=C(C=Cc1ccc(O)cc1)OC1CC(O)(C(=O)O)CC(O)C1O` (centres unmarked) [Compound 26, 5-O-(E)-p-coumaroylquinic acid], the “DPPH Inhibition Ratio (%)” value in assay [1] turned out to be 6.92%. In addition, the “ABTS+ Inhibition Ratio (%)” value in assay [2] is listed as 6.82%.
In the case of `O=C(/C=C/c1ccc(O)c(O)c1)O[C@@H]1CC(C(=O)O)=C[C@@H](O)[C@H]1O` [Compound 27, 5-O-caffeoylshikimic acid], the figures for the IC50 in assay [1] and in assay [2] were 722 ± 43.2 µM and 545 ± 12.8 µM, respectively.
For `O=C(O)/C=C/c1ccc(O)c(O)c1` [Compound 28, caffeic acid], the half-maximal inhibitory concentration (IC50) came to 479 ± 33.8 µM in assay [1] and 199 ± 4.1 µM in assay [2].
Take `O=C(O)/C=C/c1ccc(O)cc1` [Compound 29, E-p-hydroxycinnamic acid]: the “DPPH Inhibition Ratio (%)” value in assay [1] is reported as 1.55%. Moreover, the “ABTS+ Inhibition Ratio (%)” value in assay [2] worked out at 8.12%.
For `O=C1O[C@@H](c2ccc(O)cc2)Cc2cc(O)cc(O)c21` [Compound 32, (3R)-thunberginol C], the IC50 in assay [1] came out at 3940 ± 825 µM; in assay [2] it was 560.3 ± 3.3 µM.
On to `Cc1c(C)c2c(c(C)c1O)CCC(C)(C(=O)O)O2` (centres unmarked) [Trolox, trolox, reference compound], for which half-maximal inhibition in assay [2] (IC50) required 405 ± 6.2 µM.
